According to patent US11629164B2, “Gemcitabine prodrugs” (NuCana plc, priority 2014, dated 2023):
Values after ≈ are worked out from the molar mass of the structure shown. Where two headings read alike, the source gives them in different places.

Experiments:
[1] = solubility in pharmaceutically acceptable solvent systems, HPLC assay of filtrate; assay type: physicochemical
Experimental: The solubilities of NUC-1031 and its diastereoisomers were determined in a range of pharmaceutically acceptable solvent systems. The protocol adopted was as follows:
A small volume, 1-2 mL, of each solvent system was prepared and a weight of the compound in question was added. The solutions were stirred for approximately 4 hours and then […] membrane filtered. The concentration of the compound in question in the filtrate was then determined by HPLC assay.

[2] = metabolic stability in pooled human cryopreserved hepatocyte suspension, HPLC-MS/MS; assay type: in vitro ADME; details: both sexes, human, hepatocytes
Experimental: (§1) The clearance and bioavailability of most medicines are strongly influenced by their first-pass metabolism in the liver. It is possible to estimate the relative hepatic “metabolic stability” in vitro by incubating compounds with cryopreserved hepatocytes and determining the initial vs. the final amount of the test compound in the incubation mixtures.
(§2) The following procedure is an HPLC-MS/MS assay using pooled human cryopreserved hepatocyte suspension.
(§3) Human hepatocytes: mixed gender and pool of 10
(§4) Final cell density: 1 million (10^6) viable cells/mL
(§5) Pooled cryopreserved hepatocytes are thawed, washed, and resuspended in Krebs-Heinslet buffer (pH 7.3). The reaction is initiated by adding the test compound (1 μM final concentration) into cell suspension and incubated in a final volume of 100 μL on a flat-bottom 96-well plate for 0 minute and 120 minutes, respectively, at 37° C./5% CO2. The reaction is stopped by adding 100 μL of acetonitrile into the incubation mixture. Samples are then mixed gently and briefly on a plate shaker, transferred completely to a 0.8 mL V-bottom 96-well plate, and centrifuged at 2550×g for 15 minutes at room temperature. Each supernatant (150 μL) is transferred to a clean cluster tube, followed by HPLC-MS/MS analysis on a Thermo Electron triple-quadrupole system.
(§6) This assay was modified for half-life determination. In this case, the sampling time points are 0, 30, 60, 90, and 120 minutes.
(§7) Four reference compounds (1 μM) were tested simultaneously with the test compounds.
(§8) Samples are analyzed via (RP)HPLC-MS/MS using selected reaction monitoring (SRM). The HPLC conditions consist of an HP1100 binary pump with autosampler, a C-12 mixed-mode, 2×20 mm column, and a gradient.
(§9) Peak areas corresponding to the test compound are recorded by HPLC-MS/MS. The metabolic stability, expressed as percent of the test compound remaining, is calculated by comparing the peak areas of the test compound at 2 hours to time zero. In case of half-life determination, the half-life is estimated from the slope of the initial linear range of the logarithmic curve of the test compound remaining (%) vs. time, assuming first order kinetics.

[3] = tested on: pooled human cryopreserved hepatocytes; assay: as above; assay type: in vitro ADME; details: reference compounds, 1 μM
Experimental: as §1, §2, §3, §4, §5, §6, §7, §8, §9

[4] = aqueous solubility of NUC-1031 (background statement); assay type: physicochemical; details: regardless of salt content or pH
[5] = 10% mixtures of polar organic solvents in water
[6] = 50% PEG400 by volume in water, aqueous with cosolvent or surfactant or cyclodextrin, thermodynamic from solid, PEG400 (50%) by volume in water, read-out: Solubility
[7] = 50% ethanol by volume in water, aqueous with cosolvent or surfactant or cyclodextrin, thermodynamic from solid, ETHANOL (50%) by volume in water, read-out: Solubility
[8] = 50% propylene glycol by volume in water, aqueous with cosolvent or surfactant or cyclodextrin, thermodynamic from solid, PROPYLENE GLYCOL (50%) by volume in water, read-out: Solubility
[9] = mixtures of polar organic solvents with water

| Compound | solubility [1, 5] | solubility [1, 6] | solubility [1, 7] | solubility [1, 8] | solubility [1, 9] | half-life at 1 μM ([2]; pH 7.3, Half-Life 1st) | half-life at 1 μM ([2]; pH 7.3, Half-Life 2nd) | half-life at 1 μM ([2]; pH 7.3, Half-Life 3rd) | stability with human hepatocytes [3] | further results |
| --- | --- | --- | --- | --- | --- | --- | --- | --- | --- | --- |
| C[C@H](N[P@@](=O)(OC[C@H]1O[C@@H](n2ccc(N)nc2=O)C(F)(F)[C@@H]1O)Oc1ccccc1)C(=O)OCc1ccccc1 [compound 4, 2′-deoxy-2′,2′-difluoro-D-cytidine-5′-O-[phenyl(benzyloxy-L-alaninyl)]-(R)-phosphate] | substantially insoluble | 270 µg/mL (≈ 0.465 mM) | 690 µg/mL (≈ 1.19 mM) | 110 µg/mL (≈ 0.189 mM) | substantially insoluble | 7.86 h | > 2 h | > 2 h |  | half-life at 1 μM ([2]; pH 7.3, Half-Life Mean): > 2 h |
| C=CCN1CC[C@]23c4c5ccc(O)c4O[C@H]2C(=O)CC[C@@]3(O)[C@H]1C5 [naloxone, reference compound] |  |  |  |  |  |  |  |  | relatively unstable |  |
| CCN(CC)CCN1C(=O)CN=C(c2ccccc2F)c2cc(Cl)ccc21 [flurazepam, reference compound] |  |  |  |  |  |  |  |  | relatively unstable |  |
| C[C@H](N[P@](=O)(OC[C@H]1O[C@@H](n2ccc(N)nc2=O)C(F)(F)C1O)Oc1ccccc1)C(=O)OCc1ccccc1 (stereo partly drawn) [compound 3, 2′-Deoxy-2′,2′-difluoro-D-cytidine-5′-O-[phenyl(benzyloxy-L-alaninyl)]-(S)-phosphate] | significantly improved solubility | 32100 µg/mL (≈ 55.4 mM) | 34800 µg/mL (≈ 59.9 mM) | 11300 µg/mL (≈ 19.4 mM) | sufficient solubility | 0.675 h | 0.608 h | 0.583 h |  | solubility ([1]; 10% PEG400 by volume in water, aqueous with cosolvent or surfactant or cyclodextrin, thermodynamic from solid, PEG400 (10%) by volume in water, read-out: Solubility): 460 µg/mL (≈ 0.792 mM); solubility ([1]; 10% ethanol by volume in water, aqueous with cosolvent or surfactant or cyclodextrin, thermodynamic from solid, ETHANOL (10%) by volume in water, read-out: Solubility): 270 µg/mL (≈ 0.465 mM); solubility ([1]; 10% propylene glycol by volume in water, aqueous with cosolvent or surfactant or cyclodextrin, thermodynamic from solid, PROPYLENE GLYCOL (10%) by volume in water, read-out: Solubility): 230 µg/mL (≈ 0.396 mM); difference in solubility between (S)-epimer and (R)-epimer ([1]; in a number of the solvent mixtures tested): over 100 fold |
| C[C@H](NP(=O)(OC[C@H]1O[C@@H](n2ccc(N)nc2=O)C(F)(F)C1O)Oc1ccccc1)C(=O)OCc1ccccc1 (stereo partly shown) [NUC-1031] |  |  |  |  |  | 1.22 h | 1.21 h | 1.37 h |  | solubility in water [4]: essentially insoluble in water; solubility ([1]; organic solvent or mixture, thermodynamic from solid, solvent DMSO, read-out: Assay (solubility)): > 217000 µg/mL; solubility ([1]; organic solvent or mixture, thermodynamic from solid, solvent NMP, read-out: Assay (solubility)): > 207000 µg/mL; solubility ([1]; organic solvent or mixture, thermodynamic from solid, solvent PEG 400, read-out: Assay (solubility)): 385000 µg/mL (≈ 663 mM); solubility ([1]; organic solvent or mixture, thermodynamic from solid, solvent Propylene glycol, read-out: Assay (solubility)): 371000 µg/mL (≈ 639 mM); Appearance ([1]; solvent DMSO): Clear solution; Appearance ([1]; solvent Ethanol): Solubilised quickly, after 30; Appearance ([1]; solvent Glycerol): API evident; Appearance ([1]; solvent NMP): Clear solution; Appearance ([1]; solvent PEG 400): Precipitation evident after 120; Appearance ([1]; solvent Propylene glycol): Precipitation evident after 30 |
